Consider eleven molecules from PMC10388362, “Fluorescent Ligands Enable Target Engagement Studies for the Intracellular Allosteric Binding Site of the Chemokine Receptor CXCR2” (Journal of Medicinal Chemistry, 2023).

Where “and” joins values, the source holds several entries; their conditions need not be identical. Equal entries are not always repeated. Where two headings read alike, the source gives them in different places. Bounds are passed on as bounds.

Assay [1] has as its target T1, CXCR2 (Homo sapiens, UniProt P25025).
T1 construct: Promega pNLF1-C (Nluc) #CXCR20TN00; host or cells: HEK293T, transient transfection (PEI)
T1 sequence (P25025 1-360): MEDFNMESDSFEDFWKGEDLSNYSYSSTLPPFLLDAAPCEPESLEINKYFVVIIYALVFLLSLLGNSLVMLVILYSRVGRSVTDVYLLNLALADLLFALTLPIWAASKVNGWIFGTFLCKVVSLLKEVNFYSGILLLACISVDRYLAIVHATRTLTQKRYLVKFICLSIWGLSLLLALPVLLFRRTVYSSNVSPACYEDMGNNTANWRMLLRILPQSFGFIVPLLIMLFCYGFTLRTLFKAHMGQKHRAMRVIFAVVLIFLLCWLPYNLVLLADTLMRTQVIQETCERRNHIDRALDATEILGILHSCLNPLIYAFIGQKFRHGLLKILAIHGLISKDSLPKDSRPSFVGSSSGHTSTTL
The assay can be described thus: Membrane-based NanoBRET saturation assay (CXCR2_Nluc membranes). The class given is binding. The following applies: cell-free. The method, then:
Membranes from HEK293T cells transiently expressing the respective GPCR were prepared as follows. The medium of the transfected cells was refreshed after 24 h before cells were harvested 48 h post-transfection. The growth medium was removed, and the cells were carefully washed with cold phosphate-buffered saline (10 mL per Ø 15 cm dish). The cells were detached with 15 mL of ice-cold Tris-EDTA buffer (10 mM Tris, 0.5 mM EDTA, 5.4 mM KCl, 140 mM NaCl, pH 7.4) and subsequently centrifuged with 218g for 8 min. The supernatant was removed and the cells were resuspended in 10 mL of Tris-EDTA buffer. The cells were lysed with an Ultraturrax (20,000 rpm) used five times for 5 s with a 25 s break on ice in between. The lysate was centrifuged at 50,830g for 18 min at 4 °C. The supernatant was discarded, and the pellet was homogenized in a membrane buffer (50 mM Tris, 1 mM EDTA, 5 mM MgCl2, 100 μg/mL bacitracin, 5 μg/mL soybean trypsin inhibitor, pH 7.4) with a glass-teflon homogenizer. Aliquots of 250 μL were shock-frozen in liquid nitrogen and directly stored at −80 °C. Finally, the protein concentration was determined using the Lowry method.[43]
(§1) For the establishment of our NanoBRET binding assay, we referred to a recently published protocol.[45] The fluorescent ligands (9a–c) were dissolved in DMSO (1 mM) and further diluted to varying concentrations in an assay buffer (50 mM Na2HPO4, 50 mM KH2PO4, pH 7.4, 1 mg/mL saponin, 5% FBS) and 5 μL of these dilutions were pipetted to a 384-well plate. To determine the total binding, 5 μL of the assay buffer was added to the corresponding wells, while 5 μL of a solution of 3 in the assay buffer (final assay concentration: 1 μM) was used to determine nonspecific binding. Then, 20 μL of the membrane preparations diluted in the assay buffer (2 μg total protein/well) were added and the plates were incubated for 90 min at 37 °C. Subsequently, 5 μL of a furimazine solution (Promega, Mannheim, Germany, final assay dilution: 1:5000) was added to each well (final assay volume: 35 μL) before measuring luminescence with a CLARIOstar microplate reader using 620/10 and 475/30 nm emission filters after 5 min of incubation in the dark. Bioluminescence resonance energy transfer (BRET) was determined as the ratio of acceptor fluorescence and donor luminescence. The algorithms for one-site saturation binding from PRISM9.5 (GraphPad) were utilized to analyze total, nonspecific, and specific binding. Specific binding signals were calculated as a difference of total and nonspecific binding. If required, netBRET values were calculated as the difference between total BRET values and the values obtained in the absence of a fluorescent ligand. For selectivity studies with CCR2, CCR7, CCR9, and CXCR1, we modified the procedure described above.
Background: BRET reads energy transfer from a luciferase to a nearby fluorophore.

Another assay concerns the target T2, CXCR1 (Homo sapiens, UniProt P25024).
T2 construct: host or cells: HEK293T, transient; membrane preparation
T2 sequence (P25024 1-350): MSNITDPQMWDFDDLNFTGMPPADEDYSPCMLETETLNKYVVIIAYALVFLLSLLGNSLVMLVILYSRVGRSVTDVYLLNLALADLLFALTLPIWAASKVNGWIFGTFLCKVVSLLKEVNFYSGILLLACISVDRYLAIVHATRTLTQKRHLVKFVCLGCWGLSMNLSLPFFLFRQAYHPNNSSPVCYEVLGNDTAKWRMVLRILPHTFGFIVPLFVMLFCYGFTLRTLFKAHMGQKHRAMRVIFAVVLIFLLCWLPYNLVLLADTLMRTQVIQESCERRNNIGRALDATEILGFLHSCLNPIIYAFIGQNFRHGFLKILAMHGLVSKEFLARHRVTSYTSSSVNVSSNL
Nature of the assay: Membrane-based NanoBRET saturation assay, selectivity (CXCR1_Nluc membranes). The class given is binding. The settings on record: cell-free, CXCR1_Nluc membranes. The method, then:
as §1

Assay [2] has as its target T1, CXCR2. The settings on record: cited from earlier work.
Assay [3] deals with T1, CXCR2. Nature of the assay: Fluorescence microscopy, displacement of 9a in HEK293 cells stably expressing CXCR2. The class given is cell-based. The settings on record: 9a 500 nM. The method, then:
For live cell microscopy, HEK293 cells stably expressing CXCR2 were seeded onto poly-D-lysine (PDL)-coated 8-well μ-slides (Ibidi) at a density of 1.5 × 10^5 cells per well and cultured overnight at 37 °C and 5% CO2. […] Afterward, the fluorescent CXCR2 ligand ((9a) final concentration 500 nM) was added for 60 min at 37 °C, and the cells were washed once with PBS before imaging. For immunostaining, the cells were first fixed with 4% paraformaldehyde solution, washed with PBS, and then blocked for 1 h with 10% goat serum and 1% fatty acid-free bovine serum albumin (BSA) in PBS at 37 °C. As primary antibody, anti-CXCR2 mouse IgG (R&D Systems, catalog # 48311, 1:100 in blocking solution) was added, and the cells were incubated for 1 h at 37 °C. After three washes with PBS, goat anti-mouse IgG (H+L) conjugated to FITC (Sigma-Aldrich, catalog # AP124F, 1:500 in blocking solution) was added for 1 h at 37 °C. The cells were again washed three times with PBS and counterstained with 4′,6-diamidin-2-phenylindole (DAPI) solution (0.1 μg/mL) for 15 min in the dark at room temperature, followed by three washes with PBS. […] Afterward, the fluorescent CXCR2 ligand ((9a) final concentration 500 nM) was added for 30 min at 37 °C and the cells were imaged. Microscopy was carried out on an AxioObserver.Z1 microscope (Carl Zeiss, Jena, Germany) equipped with an ApoTome imaging system and a Heating unit XL S using a Plan-Apochromat ×63/1.40 Oil objective (filter set 43 (red), 38 (green), 49 (blue)). Image processing and line scan analysis were performed with Zen blue Imaging software. The fluorescence intensity values were normalized to vehicle control.

In assay [4] the target is T1, CXCR2. Nature of the assay: Membrane-based NanoBRET competition assay with 9a. The class given is binding. The settings on record: for % comp. @ 70 μM: competitor 70 μM, 9a (50 nM). How it is done: Then, 20 μL of the membrane preparation (diluted in assay buffer, 2 μg total protein/well) was added and the plates were incubated for 90 min at 37 °C. Subsequently, 5 μL of a furimazine solution (final assay dilution: 1:5000 in the assay buffer) was added to each well (final assay volume: 35 μL). […] To determine the inhibition constants (Ki) of the nonlabeled ligands, data were analyzed using the one-site-fit Ki equation in PRISM9.5 (GraphPad).

Where [5] appears, read: membranes from HEK293T cells transiently expressing CXCR2_Nluc, read-out: Kd (equilibrium saturation binding).
Setting [6] is: competition with 9a (50 nM), CXCR2_Nluc membranes, read-out: pKi (converted).
[7] abbreviates: Ki of nonfluorescent ligands, cell-free, read-out: cell-free Kd or Ki for CXCR2.
Where [8] appears, read: competition with 9a (50 nM), CXCR2_Nluc membranes, read-out: Ki.

Regarding `Cc1ccc([C@H](Nc2c(Nc3cccc(C(=O)NCc4cn(CCOCCOCCNC(=O)c5ccc(C(=O)[O-])c(-c6c7ccc(=[N+](C)C)cc-7oc7cc(N(C)C)ccc67)c5)nn4)c3O)c(=O)c2=O)C(C)(C)C)o1` [9b, (R)-4-((2-(2-(2-(4-((3-((2-((2,2-Dimethyl-1-(5-methylfuran-2-yl)propyl)amino)-3,4-dioxocyclobut-1-en-1-yl)amino)-2-hydroxybenzamido)methyl)-1H-1,2,3-triazol-1-yl)ethoxy)ethoxy)ethyl)carbamoyl)-2-(6-(dimethylamino)-3-(dimethyliminio)-3H-xanthen-9-yl)benzoate], the Kd was 4.62 ± 0.87 nM at CXCR2 [1] (setting [5]) and 122 ± 5.6 nM at CXCR1.

Consider `Cc1ccc([C@H](Nc2c(Nc3cccc(C(=O)NCc4cn(CCCNC(=O)c5ccc(-c6c7ccc(=[N+](C)C)cc-7oc7cc(N(C)C)ccc67)c(C(=O)[O-])c5)nn4)c3O)c(=O)c2=O)C(C)(C)C)o1` [9c, (R)-5-((3-(4-((3-((2-((2,2-Dimethyl-1-(5-methylfuran-2-yl)propyl)amino)-3,4-dioxocyclobut-1-en-1-yl)amino)-2-hydroxybenzamido)methyl)-1H-1,2,3-triazol-1-yl)propyl)carbamoyl)-2-(6-(dimethylamino)-3-(dimethyliminio)-3H-xanthen-9-yl)benzoate], for which the Kd on CXCR2 [1] (Kd of fluorescent ligands, read-out: cell-free Kd or Ki for CXCR2) came out at 2 nM; at CXCR2 [1] (setting [5]), 2.62 ± 0.78 nM; at CXCR1, 49.3 ± 0.7 nM.

Regarding `CC[C@@H](Nc1c(Nc2ccnc(C(=O)N(C)C)c2O)c(=O)c1=O)c1cc(C(C)C)co1` [compound 1], the IC50 (usually the concentration that gives 50% inhibition) on CXCR2 [2] (reported value ref 4) is 0.62 nM.

In the case of `CC[C@@H](Nc1c(Nc2cccc(C(=O)N(C)C)c2O)c(=O)c1=O)c1ccc(C)o1` [compound 2, navarixin], the “effect of preincubation on membrane-associated 9a fluorescence” value on CXCR2 [3] (fixed HEK293 cells stably expressing CXCR2, competitor 10 μM) is on record as “virtually blunted all membrane-associated probe fluorescence”. Besides, on CXCR2 [3] (live cell imaging, HEK293 cells stably expressing CXCR2, competitor 10 μM), the “effect of preincubation on membrane-based 9a fluorescence” value is reported as “very strong reduction in membrane-based fluorescence”.

In the case of `O=C(Nc1ccc(Cl)c(S(=O)(=O)N2CCNCC2)c1O)Nc1cccc(F)c1Cl` [compound 6, elubrixin], the IC50 on CXCR2 [2] (reported value ref 17) is 22 nM.

With `COCCn1cc(CNC(=O)c2cccc(Nc3c(N[C@@H](c4ccc(C)o4)C(C)(C)C)c(=O)c3=O)c2O)nn1` [compound 8, (R)-3-((2-((2,2-Dimethyl-1-(5-methylfuran-2-yl)propyl)amino)-3,4-dioxocyclobut-1-en-1-yl)amino)-2-hydroxy-N-((1-(2-methoxyethyl)-1H-1,2,3-triazol-4-yl)methyl)benzamide], the Ki at CXCR2 [4] (setting [6]) was 0.427 nM.

Take `CC(=O)C1=C(O)C(=O)N(c2ccc(Br)cc2F)C1C1CCCCC1` (stereo not drawn) [compound 20]: the results for the Ki on CXCR2 [4] (setting [7]), at CXCR2 [4] (setting [8]) and at CXCR2 [4] (setting [6]) were 2700 nM, no less than 261 nM and 2630 nM, respectively.

In the case of `O=C(O)c1ccccc1Oc1ccc(Cl)cc1NS(=O)(=O)c1ccc(Cl)c(Cl)c1` [compound 21], the Ki at CXCR2 [4] (setting [7]) was 4900 nM; at CXCR2 [4] (setting [8]) it was no less than 261 nM; on CXCR2 [4] (setting [6]) it was 4680 nM.

Take `Cc1ccc([C@H](NC2=NS(=O)(=O)N=C2Nc2ccc(C)c(C(=O)N(C)C)c2O)C(C)(C)C)o1` [compound 22]: the Ki on CXCR2 [4] (setting [7]) was 261 nM; at CXCR2 [4] (setting [8]) it was ≥ 261 nM and 300 nM; at CXCR2 [4] (setting [6]), 251 nM.

In the case of `CC(C)(C)c1ccc(S(=O)(=O)Nc2ccc(Cl)cc2C(=O)c2cc[n+]([O-])cc2)cc1` [compound 23, vercirnon], at CXCR2 [4] (Ki of nonfluorescent ligands, cell-free), the “cell-free Kd or Ki for CXCR2 [nM]” value is listed as “n.i”. Moreover, the Ki on CXCR2 [4] (setting [8]) was no less than 261 nM. In addition, the “% comp. @ 70 μM” value at CXCR2 [4] (CXCR2_Nluc membranes) is -3%.

Regarding `CC(C)(C)c1ccc(S(=O)(=O)Nc2ccc(Cl)cc2-c2cncnc2N)cc1` [compound 24], on CXCR2 [4] (setting [8]), the Ki is no less than 261 nM. Moreover, the “% comp. @ 70 μM” value at CXCR2 [4] (CXCR2_Nluc membranes) turned out to be 28%.
